Experimental findings from patent US6015820A, “4-Aryl-thio-pyridin-2(1H)-ones, medicines containing them and their uses in the treatment of illnesses linked to HIV” (priority 1995, dated 2000) are described below.

“Also recorded” adds a separate entry of the source.

The target in test [1] is T1, endogenous IT of isolated virion (Human immunodeficiency virus type 1 group M subtype B, UniProt P03367).
T1 construct: endogenous in cells; host or cells: isolated HIV-1 virions
Description: inhibition of the endogenous IT on the isolated virion. The test is classed as biochemical. As to conditions: for IT activity in cpm: Table 7, 10 μM. The method, then:
(§1) After having been incubated with the various inhibitors, the viral supernatants (200 μl) were deposited in the filtering part of a VectaSpin tube (WHATMAN) fitted with an ANAPORE membrane of porosity 0.02 μm. For 10 minutes they were subjected to centrifugation, the acceleration of which reached 6000 g at the filtering membrane. The viral residuums thereby obtained (10-15 μl ) were washed 3 times under the same conditions with 500 μl of RPMI then restored to their initial volumes with RPMI containing 10% of CFS.

The test system of test [2] is HIV-1 IIIB. Description: anti-HIV-1 activity, HIV-1 IIIB/PBMC. It counts as cell-based. Particulars: Human immunodeficiency virus 1, Table 4. As for the experimental part:
(§2) The virus production was measured by quantifying the activity of the inverse transcriptase associated with viral particles released into the culture supernatant. In short, cells were infected with 100 TCID50 for 30 minutes; after adsorption of the virus, unbound particles were removed by two washings and the cells were cultivated in the presence of different concentrations of the compounds tested for 5 days before determining the viral production. The concentration inhibiting 50% of the viral multiplication (IC50) came from the computer plot of the median effect of the dose effect results (Chou et al. Elsevier Science Publishers, Cambridge U.K. (1985), 19-28).
(§3) Thirty two compounds according to the invention were studied for their anti-HIV-1 biological activity. […] This compound was then tested with other colonies and other cell lines (Table 4).

For test [3], the system named is HIV-1 6 type D (primary isolate). Description: anti-HIV-1 activity, HIV-1 6 type D (primary isolate)/PBMC. It counts as cell-based. As to conditions: Human immunodeficiency virus 1, Table 4. As for the experimental part:
as §2, §3

Test [4] concerns isolated virion HIV-1LAI. Nature of the test: infectivity of the isolated virion after treatment with inhibitors (HT4LacZ cells). The test is classed as cell-based. As for the experimental part: H9 cells chronically infected with HIV-1LAI (10^8 /ml) were cocultivated with MT4 cells (10^8 /ml) for 48 hours in an RMPI medium supplemented by 10% of calf foetal serum (CFS). The cells were then removed by centrifugation and then the supernatant liquid was filtered (0.45 μm) to remove residual cells and cell debris.
as §1
The HT4LacZ-1 cells were kept in a DMEM medium (glucose 4.5 g/l) supplemented with 10% of calf foetal serum in the presence of Gentamycin (50 mg/l). These cells stemmed from Hela cells in which had been cloned, on the one hand the gene coding for the human CD4 so as to render them susceptible to infection by the HIV (Chesebro and Wehrly, 1988, J. Virol., 62, 3779-3788), and on the other hand the gene for β-Galactosidase which, placed under the dependent of the LTR of the HIV-1 served as a marker for the viral infection (Rocancourt et al. (1990) J. Virol. 1990 64-6, 2660-2688). When the virus infects such cells after its integration into the cellular genome, the production of the regulatory protein TAT activates the LTR of the HIV. The result is an activation of the gene of β-Galactosidase which leads to its production in the intracellular medium and more particularly in the nucleus. It is this protein that serves as a marker of the infection.
The evening of day 0, the HT4LacZ-1 cells were diluted at the rate of 75000 cells per ml of medium. 100 μl of this suspension was then distributed over a flat bottomed plate with 96 wells and was cultivated overnight at 37° C. (5% of CO2).
The morning of day 1, the supernatant liquid was removed by aspiration. Each well was then complemented with 200 μl of the viral supernatant dilutions to be tested. Each dilution was made in a DMEM medium (glucose 4.5 g/l) supplemented with 10% of CFS. The plates were then placed in an environment at 37° C. in the presence of 5% of CO2.
After 48 hours of culture, the supernatant liquid was aspirated, then each well was washed 3 times in PBS before being complemented with 200 μl of developing buffer (Tris-HCl 50 mM pH=8.5, ONPG 5 mg/ml β-mercapto-ethanol 7 μl/ml Triton×100 0.05%). After 4 hours of incubation at 37° C., the optical density of each well was measured.
The concentration of each of the inhibitors of the IT of the HIV-1 was adjusted to 50 mM in DMSO. The later dilutions were carried out on RPMI 1640. 2 μl of suitable dilutions of each of these inhibitors were added to 198 μl of a freshly unfrozen viral suspension. After 3 hours of incubation at ambient temperature, these suspensions were filtered on 0.02 μ VecraSpin tubes, then washed 3 times with 500 μl of RPMI 1640. The viral residuums were then adjusted to 200 μL with the culture medium (RPMI-10% CFS), then tested with regard to their infectivity on HT4LacZ cells.

Test [5] deals with inverse transcriptase of HIV-1 (HIV-1 M:B_ARV2/SF2, UniProt P03369). Description: enzymatic kinetic analysis of IT inhibition (Lineweaver-Burk). It counts as biochemical. As for the experimental part: FIG. 12 is a double-reciprocal (Lineweaver-Burk) representation of the inhibition of the inverse transcriptase of HIV-1 by compound 7c with the poly C-oligo dG as a matrix-primer couple and dGPT as substrate.
FIG. 13 is a double-reciprocal representation, similar to […], in which the poly A-oligo dT is used as a matrix-primer couple and dTTP as substrate.
Incubation was carried out at 37° C. for 10 minutes in the presence of various matrix-primers.
a) Poly C-oligo dG: the reaction mixture contained a final volume of 0.05 ml, Tris-HCl 50 mM pH 8.0, MgCl2 5 mM, dithiothreitol 4 mM, 0.48 A260 /ml of poly C-oligo dG (5:1), 1.0 μCi of [^3 H]dGTP (28 Ci/mmole), dGTP 2 μM, KCl 80 mM, 1 μg of bovine serum albumin and IT 20-50 nM.
b) Poly A-oligo dT: the same conditions as in a), except that 0.48 A260 /ml of poly A-oligo dT (5:1), 0.5 μCi of [^3 H]dTTP (46 Ci/mmole), dTTP 20 μM were used.
The reactions were stopped by adding in the cold 1 ml of 10% trichloroacetic acid plus sodium pyrophosphate 0.1 M. The precipitates were filtered through nitrocellulose membranes, washed with 2% trichloroacetic acid, dried and counted in a PPO/POPOP/toluene scintillation mixture.

For `CCc1c(C)[nH]c(=O)c([N+](=O)[O-])c1Sc1cc(C)cc(C)c1` [Compound 7c, 5-ethyl-6-methyl-3-nitro-4-(3', 5'-dimethylphenyl)thio-pyridin-2(1H)-one], the “IT activity in cpm” value in test [1] (first (unheaded) value column, isolated virion control 813) amounted to 32 cpm; in test [1] (second (unheaded) value column, isolated virion control 809), 852 cpm. Moreover, in test [1] (isolated virions incubated 3 hours), the “penetration of envelope and capsid and blocking of IT” value is “appeared to penetrate the envelope and the viral capsid to fix itself onto the IT and to block its activity”. Further, the figures for the IC50 in test [2] and in test [3] were under 0.03 nM and under 0.1 nM, respectively. For the same molecule, in test [4] (Human immunodeficiency virus 1, 0.1 μM inhibitor, 3 h, 100 TCID50, compared with viral supernatant subjected to same treatments, mean of 1 to 4 experiments, read-out: Activity of the isolated virions after treatment), the activity at 0.1 µM came to 60%. In test [4] (Human immunodeficiency virus 1, 1 μM inhibitor, 3 h, 100 TCID50, compared with viral supernatant subjected to same treatments, mean of 1 to 4 experiments, read-out: Activity of the isolated virions after treatment), the activity at 1 µM came to 1%. The activity at 10 µM in test [4] (Human immunodeficiency virus 1, 10 μM inhibitor, 3 h, 100 TCID50, compared with viral supernatant subjected to same treatments, mean of 1 to 4 experiments, read-out: Activity of the isolated virions after treatment) came out at 0%. Besides, the inhibition in infectivity entry in test [4] (incubation of 45 minutes, preliminary experiments) is given as “greater than 98%”. In addition, the “activity on the isolated virion (in words)” value in test [4] (isolated virion) is “truly active on the isolated virion; also recorded: capable, after having penetrated the viral particle, of inhibiting the inverse transcriptase and of suppressing the viral infectivity”. In addition, the type of inhibition result in test [5] (as regards dGTP substrate, poly C-oligo dG matrix-primer (FIG. 12)) is “non-competitive”; in test [5] (poly A-oligo dT matrix-primer, dTTP substrate (FIG. 13)), “competitive”.
